Test results as given in patent US20180000085A1, “USE OF PICOLINAMIDE COMPOUNDS WITH FUNGICIDAL ACTIVITY” (DOW AGROSCIENCES LLC, priority 2014, published 2018).

How the values were obtained:
Zymoseptoria tritici = assay: Leaf blotch of wheat (SEPTTR) disease control on wheat seedlings; assay type: in vivo; set-up: key to SEPTTR 1DP, HV activity at 100 ppm (% control rating) / SEPTTR 3DC, HV activity at 100 ppm (% control rating) / SEPTTR disease control, 1DP / SEPTTR disease control, 3DC / SEPTTR 1DP disease control rating, HV activity / SEPTTR 3DC disease control rating, HV activity / SEPTTR 3DC, LV activity at 125.1 g/H (% Control rating) / SEPTTR 1DP, LV activity at 125.1 g/H (% Control rating) / SEPTTR 1DP disease control rating, LV activity at 125.1 g/H / SEPTTR 3DC disease control rating, LV activity at 125.1 g/H / SEPTTR 3DC disease control rating, HV activity at 100 ppm / SEPTTR 1DP disease control rating, HV activity at 100 ppm / HV activity at 100 ppm SEPTTR 3DC (disease control rating) / HV activity at 100 ppm SEPTTR 1DP (disease control rating) / LV activity at 125.1 g/H SEPTTR 1DP (disease control rating) / LV activity at 125.1 g/H SEPTTR 3DC (disease control rating): A: > 80; B: ≤ 80; C: Not Tested; D: No Activity Observed in the Reported Assay; settings: for SEPTTR 1DP disease control rating, HV activity / SEPTTR 3DC disease control rating, HV activity: HV application at 100 ppm
Puccinia triticina = assay: Wheat brown rust (PUCCRT) disease control on wheat seedlings; assay type: in vivo; set-up: key to PUCCRT 3DC, HV activity at 100 ppm (% control rating) / PUCCRT disease control, 3DC / PUCCRT 1DP disease control rating, HV activity / PUCCRT 3DC disease control rating, HV activity / PUCCRT 3DC, LV activity at 125.1 g/H (% Control rating) / PUCCRT 1DP, LV activity at 125.1 g/H (% Control rating) / PUCCRT 3DC disease control rating, LV activity at 125.1 g/H / PUCCRT 1DP disease control rating, LV activity at 125.1 g/H / PUCCRT 3DC disease control rating, HV activity at 100 ppm / PUCCRT 1DP disease control rating, HV activity at 100 ppm / HV activity at 100 ppm PUCCRT 3DC (disease control rating) / LV activity at 125.1 g/H PUCCRT 1DP (disease control rating) / LV activity at 125.1 g/H PUCCRT 3DC (disease control rating): A: > 80; B: ≤ 80; C: Not Tested; D: No Activity Observed in the Reported Assay; settings: for PUCCRT 1DP disease control rating, HV activity / PUCCRT 3DC disease control rating, HV activity: HV application at 100 ppm
[1] = high volume application, 100 ppm, 1 day protectant
[2] = high volume application, 100 ppm, 3 day curative
[3] = low volume application, 125.1 g/H, 1 Day Protectant
[4] = low volume application, 125.1 g/H, 3 Day Curative
[5] = 1 Day Protectant, wheat leaf blotch
[6] = 3 Day Curative, wheat leaf blotch
[7] = 1 Day Protectant, wheat brown rust
[8] = 3 Day Curative, wheat brown rust
[9] = low volume application, 125.1 g/H, 1 day protectant
[10] = low volume application, 125.1 g/H, 3 day curative

## COc1ccnc(C(=O)N[C@@H](C)C(=O)O[C@@H](C)[C@H](Oc2ccccc2)c2ccc(F)cc2)c1O [Cmpd 848]
Zymoseptoria tritici; [1]
  SEPTTR 1DP disease control rating, HV activity at 100 ppm: B (≤ 80)
Zymoseptoria tritici; [2]
  SEPTTR 3DC disease control rating, HV activity at 100 ppm: A (> 80)
Puccinia triticina; [1]
  PUCCRT 1DP disease control rating, HV activity at 100 ppm: A (> 80)
Puccinia triticina; [2]
  PUCCRT 3DC disease control rating, HV activity at 100 ppm: B (≤ 80)

## COc1cccc(O[C@H](C2CC2)[C@H](C)OC(=O)[C@H](C)NC(=O)c2nccc(OC)c2OC(C)=O)c1 [Cmpd 1061]
Zymoseptoria tritici; low volume application, 125.1 g/H, 1 Day Protectant, wheat leaf blotch
  LV activity at 125.1 g/H SEPTTR 1DP (disease control rating): D
Zymoseptoria tritici; low volume application, 125.1 g/H, 3 Day Curative, wheat leaf blotch
  LV activity at 125.1 g/H SEPTTR 3DC (disease control rating): B (≤ 80)
Puccinia triticina; low volume application, 125.1 g/H, 1 Day Protectant, wheat brown rust
  LV activity at 125.1 g/H PUCCRT 1DP (disease control rating): B (≤ 80)
Puccinia triticina; low volume application, 125.1 g/H, 3 Day Curative, wheat brown rust
  LV activity at 125.1 g/H PUCCRT 3DC (disease control rating): A (> 80)

## CCC(CC)[C@@H](Oc1cc(F)cc(Cl)c1)[C@H](C)OC(=O)[C@@H](NC(=O)c1nccc(OC)c1OCOC(C)=O)C(C)C [Cmpd 651]
Zymoseptoria tritici; [3]
  SEPTTR 1DP, LV activity at 125.1 g/H (% Control rating): A (> 80)
Zymoseptoria tritici; [4]
  SEPTTR 3DC, LV activity at 125.1 g/H (% Control rating): A (> 80)
Puccinia triticina; [3]
  PUCCRT 1DP, LV activity at 125.1 g/H (% Control rating): A (> 80)
Puccinia triticina; [4]
  PUCCRT 3DC, LV activity at 125.1 g/H (% Control rating): B (≤ 80)

## COc1ccnc(C(=O)N[C@@H](C)C(=O)O[C@@H](C)[C@H](Oc2cccc3ccccc23)C(C)C)c1OC(C)=O [Cmpd 631]
Zymoseptoria tritici; [3]
  SEPTTR 1DP, LV activity at 125.1 g/H (% Control rating): B (≤ 80)
Zymoseptoria tritici; [4]
  SEPTTR 3DC, LV activity at 125.1 g/H (% Control rating): D
Puccinia triticina; [3]
  PUCCRT 1DP, LV activity at 125.1 g/H (% Control rating): A (> 80)
Puccinia triticina; [4]
  PUCCRT 3DC, LV activity at 125.1 g/H (% Control rating): A (> 80)

## COc1ccnc(C(=O)NC(C)C(=O)OC(C)COCC2CC2)c1OCOC(C)=O (stereo not drawn) [Cmpd 527]
Zymoseptoria tritici; [3]
  SEPTTR 1DP, LV activity at 125.1 g/H (% Control rating): D
Zymoseptoria tritici; [4]
  SEPTTR 3DC, LV activity at 125.1 g/H (% Control rating): A (> 80)
Puccinia triticina; [3]
  PUCCRT 1DP, LV activity at 125.1 g/H (% Control rating): B (≤ 80)
Puccinia triticina; [4]
  PUCCRT 3DC, LV activity at 125.1 g/H (% Control rating): B (≤ 80)

## COCC[C@H](Cc1ccc(F)cc1)[C@@H](OC(=O)C(C)C)[C@H](C)OC(=O)[C@H](C)NC(=O)c1nccc(OC)c1OCOC(C)=O [Cmpd 499]
Zymoseptoria tritici; [3]
  SEPTTR 1DP, LV activity at 125.1 g/H (% Control rating): D
Zymoseptoria tritici; [4]
  SEPTTR 3DC, LV activity at 125.1 g/H (% Control rating): B (≤ 80)
Puccinia triticina; [3]
  PUCCRT 1DP, LV activity at 125.1 g/H (% Control rating): A (> 80)
Puccinia triticina; [4]
  PUCCRT 3DC, LV activity at 125.1 g/H (% Control rating): A (> 80)

## CCCC(NC(=O)c1nccc(OC)c1OCOC(C)=O)C(=O)OC(C)C(CCc1ccccc1)OCC(C)C (stereo not drawn) [Cmpd 444]
Zymoseptoria tritici; [5]
  SEPTTR 1DP disease control rating, HV activity: A (> 80)
Zymoseptoria tritici; [6]
  SEPTTR 3DC disease control rating, HV activity: A (> 80)
Puccinia triticina; [7]
  PUCCRT 1DP disease control rating, HV activity: A (> 80)
Puccinia triticina; [8]
  PUCCRT 3DC disease control rating, HV activity: B (≤ 80)

## COc1ccnc(C(=O)N[C@@H](C)C(=O)O[C@@H](C)[C@@H](Oc2ccccc2)c2cccnc2)c1OC(C)=O [Cmpd 849]
Zymoseptoria tritici; [9]
  SEPTTR 1DP disease control rating, LV activity at 125.1 g/H: D
Zymoseptoria tritici; [10]
  SEPTTR 3DC disease control rating, LV activity at 125.1 g/H: B (≤ 80)
Puccinia triticina; [9]
  PUCCRT 1DP disease control rating, LV activity at 125.1 g/H: D
Puccinia triticina; [10]
  PUCCRT 3DC disease control rating, LV activity at 125.1 g/H: B (≤ 80)

## CCC(CC)[C@@H](Oc1ccc(Cl)cc1Cl)[C@H](C)OC(=O)[C@@H](NC(=O)c1nccc(OC)c1O)C(C)C [Cmpd 408]
Zymoseptoria tritici; [5]
  SEPTTR 1DP disease control rating, HV activity: B (≤ 80)
Zymoseptoria tritici; [6]
  SEPTTR 3DC disease control rating, HV activity: D
Puccinia triticina; [7]
  PUCCRT 1DP disease control rating, HV activity: B (≤ 80)
Puccinia triticina; [8]
  PUCCRT 3DC disease control rating, HV activity: D

## CCC(CC)[C@@H](OCC1CC1)[C@H](C)OC(=O)[C@H](C)NC(=O)c1nccc(OC)c1O [Cmpd 353]
Zymoseptoria tritici; [5]
  SEPTTR 1DP disease control rating, HV activity: B (≤ 80)
Zymoseptoria tritici; [6]
  SEPTTR 3DC disease control rating, HV activity: B (≤ 80)
Puccinia triticina; [7]
  PUCCRT 1DP disease control rating, HV activity: A (> 80)
Puccinia triticina; [8]
  PUCCRT 3DC disease control rating, HV activity: A (> 80)

## CCCO[C@@H](C1CC1)[C@@H](Oc1ccccc1)[C@H](C)OC(=O)[C@H](C)NC(=O)c1nccc(OC)c1OCOC(C)=O [Cmpd 505]
Zymoseptoria tritici; [3]
  SEPTTR 1DP, LV activity at 125.1 g/H (% Control rating): B (≤ 80)
Zymoseptoria tritici; [4]
  SEPTTR 3DC, LV activity at 125.1 g/H (% Control rating): B (≤ 80)
Puccinia triticina; [3]
  PUCCRT 1DP, LV activity at 125.1 g/H (% Control rating): A (> 80)
Puccinia triticina; [4]
  PUCCRT 3DC, LV activity at 125.1 g/H (% Control rating): A (> 80)

## CCC(CC)C(Oc1cc(F)cc(Cl)c1)C(C)OC(=O)C(C)NC(=O)c1nccc(OC)c1OC(C)=O (stereo not drawn) [Cmpd 677]
Zymoseptoria tritici; [9]
  SEPTTR 1DP disease control rating, LV activity at 125.1 g/H: B (≤ 80)
Zymoseptoria tritici; [10]
  SEPTTR 3DC disease control rating, LV activity at 125.1 g/H: B (≤ 80)
Puccinia triticina; [9]
  PUCCRT 1DP disease control rating, LV activity at 125.1 g/H: B (≤ 80)
Puccinia triticina; [10]
  PUCCRT 3DC disease control rating, LV activity at 125.1 g/H: B (≤ 80)
